Results as given in patent publication US12679878B2, “CRF2 receptor agonists and their use in therapy” (SANOFI, priority 2020, dated 2026).
Where two headings read alike, the source gives them in different places. Starred links: 1 amine or outer side, 2 acyl side, 3 side chain; linkers in the order of their positions; H or OH if unused. Residues, ends and D or L forms follow the SMILES beside them. Groups on a side chain read outwards from the residue. *: point of attachment. C18 diacid = O=C(O)CCCCCCCCCCCCCCCCC(=O)*; γGlu = O=C(O)[C@H](CCC(=O)[*:2])N[*:1]; Palmitoyl = CCCCCCCCCCCCCCCC(=O)*; AEEA = NCCOCCOCC(=O)O

Tests used:
human CRF2α receptor = molecular target: T1, human CRF2α receptor (Homo sapiens, UniProt Q13324); experiment: cAMP agonism at human CRF2 α receptor in TeloHEAC cells (Example 7); type: cell-based; conditions: cAMP HTRF, TeloHEAC cells stably expressing human CRF2 α
T1 construct: expressed in transfected cells; host or cells: TeloHEAC
T1 sequence (Q13324 1-411): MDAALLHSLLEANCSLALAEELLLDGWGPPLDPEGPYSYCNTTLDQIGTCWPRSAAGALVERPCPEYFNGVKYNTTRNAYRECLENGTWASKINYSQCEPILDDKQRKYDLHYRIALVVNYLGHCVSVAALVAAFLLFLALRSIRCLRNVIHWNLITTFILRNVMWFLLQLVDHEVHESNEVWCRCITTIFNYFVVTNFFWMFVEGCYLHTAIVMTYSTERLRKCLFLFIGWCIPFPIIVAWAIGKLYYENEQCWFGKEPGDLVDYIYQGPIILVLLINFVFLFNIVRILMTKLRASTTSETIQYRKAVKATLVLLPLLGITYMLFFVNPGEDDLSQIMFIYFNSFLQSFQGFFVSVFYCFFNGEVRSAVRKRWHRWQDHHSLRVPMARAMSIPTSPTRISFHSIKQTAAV
How it was run: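 Cryopreserved cells are thawed, washed and resuspended in IBMX-containing (2 mM) HEPES-buffered HBSS with or without 0.1% HSA. Compound incubation runs 30 min at room temperature with 2000 cells per well, then cAMP is measured by time-resolved FRET. Potency is expressed as EC50, efficacy relative to urocortin 2 at 1000 nM.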

CRF1R receptor = molecular target: T2, CRF1R receptor (Homo sapiens, UniProt P34998); experiment: cAMP activity at anti-target CRF1R, CRF1R-overexpression CHO cell line (Example 9); type: cell-based
T2 construct: host or cells: CHO-K1 clone 2
T2 sequence (P34998 24-415): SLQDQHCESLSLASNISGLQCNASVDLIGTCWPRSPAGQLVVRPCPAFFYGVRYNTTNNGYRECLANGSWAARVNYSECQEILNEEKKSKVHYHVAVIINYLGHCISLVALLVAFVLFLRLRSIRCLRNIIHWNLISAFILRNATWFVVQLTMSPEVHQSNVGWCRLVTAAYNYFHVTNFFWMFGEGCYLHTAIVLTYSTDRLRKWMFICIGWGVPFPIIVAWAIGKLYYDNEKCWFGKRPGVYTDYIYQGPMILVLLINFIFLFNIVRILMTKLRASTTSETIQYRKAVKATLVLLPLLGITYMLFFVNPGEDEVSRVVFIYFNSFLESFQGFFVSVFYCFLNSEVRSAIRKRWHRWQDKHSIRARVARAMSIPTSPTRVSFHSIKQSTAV
How it was run: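 Using thawed CRF1R-overexpressing CHO cells at 2000 per well, compound is applied for 30 min at RT in HBSS/HEPES buffer with IBMX. Cellular cAMP content is determined via HTRF, and percent activity is calculated against 1000 nM UCN2 defined as 100%.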

[1] = Physical stability, Thioflavin T fibrillation assay (Example 14); type: physicochemical; conditions: 3 mg/ml, 37° C. shaking
How it was run: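 Fibrillation tendency was judged from lag time and rise in Thioflavin T fluorescence, measured every 20 minutes over eight replicates per sample. Peptides at 3 mg/ml final were held at 37° C under cycles of 10 s shaking (960 rpm) and 50 s rest.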

[2] = Solubility in buffer systems by UPLC-UV (Example 13); type: physicochemical
How it was run: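 Quantitation used UV peak area from UPLC of the 1:10-diluted supernatant, set against a reference-compound standard curve with extinction coefficients adjusted for amino acid sequence.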

[3] = Chemical stability, purity loss by UPLC-UV after 28 days at 40° C. vs 5° C., pH 4.5 acetate buffer (Example 12); type: physicochemical; conditions: 28 days 40° C. vs 5° C.; pH 4.5, 20 mM acetate buffer; 300 μM
Protocol: The chemical stability of the compounds was assessed by storing the compounds under various conditions and then determining the loss of purity by UPLC-UV.
Prior to measuring the chemical stability of a batch of test compound, the purity of the compound was determined through UPLC/MS. For stability testing the target concentration was 300 μM pure compound. Therefore, solutions from solid samples were prepared in a pH 4.5, 20 mM acetate buffer system with a concentration of 300 μM compound based on the previously determined % purity:
At the starting point, UPLC-UV was performed by injection of 2 μl of the undiluted sample. Aliquots were then stored for 28 days at temperatures of 5 and 40° C. […] Then 2 μl samples of the undiluted supernatant were analysed with UPLC-UV. The chemical stability was calculated by the equation: [(purity after 28 days at 5° C.)−(purity after 28 days at 40° C.)]/(purity after 28 days at 5° C.)]×100%. The purity was calculated as: [(peak area compound)/(total peak area)]×100%.

rat CRF2R α receptor = experiment: cAMP agonism at rat CRF2R α receptor in A7R5 rat aortic smooth muscle cells (Example 8); type: cell-based; conditions: cAMP HTRF, A7R5 rat aortic smooth muscle cell line, 0% HSA
How it was run: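 Potency (EC50) is the concentration reaching half-maximal activation, with responses scaled so that 1000 nM urocortin 2 equals 100%. Intracellular cAMP was quantified by homogeneous time-resolved fluorescence at 665/620 nm, 1 h after lysis-buffer reagents. Compound stimulation lasted 30 min at room temperature on 2000 IBMX-treated (2 mM) cells per well in HEPES-buffered HBSS.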

[4] = 0% HSA, read-out: EC50 [nM], 0% HSA
[5] = Buffer A: 100 mM acetate buffer, pH 4.5
[6] = Buffer B: 100 mM acetate buffer, pH 4.5, 2.7 mg/ml m-cresol

| SMILES | EC50 (human CRF2α receptor; [4]) [nM] | EC50 (human CRF2α receptor; 0.1% HSA, read-out: EC50 [nM], 0.1% HSA) [nM] | Emax (CRF1R receptor; CRF1R-overexpression CHO cell line, read-out: Emax (%)) [%] | Increase in FI (fluorescence intensity) [1, 5] | Lag time [1, 5] [h] | Increase in FI (fluorescence intensity) [1, 6] | Lag time [1, 6] [h] | solubility at 1 h ([2]; pH 4.5, Solubility in Buffer B [mg/ml]) [µg/mL] | solubility at 1 h ([2]; pH 7.4, Solubility in Buffer C [mg/ml]) [µg/mL] | Relative purity loss [%] [3] [%] | Emax (CRF1R receptor; CHO) [%] | EC50 (rat CRF2R α receptor) [nM] | solubility at 1 h ([2]; Buffer B: 100 mM acetate buffer, pH 4.5, 2.7 mg/ml m-cresol, target 10 mg/ml, read-out: Solubility in Buffer B) [µg/mL] | solubility at 1 h ([2]; Buffer C: 100 mM phosphate buffer, pH 7.4, target 10 mg/ml, read-out: Solubility in Buffer C) [µg/mL] |
| --- | --- | --- | --- | --- | --- | --- | --- | --- | --- | --- | --- | --- | --- | --- |
| CCCCCCCCCCCCCCCC(=O)N[C@@H](CCC(=O)NCCCC[C@H](NC(=O)[C@H](CC(C)C)NC(=O)CNC(=O)[C@@H](NC(=O)[C@@H]1CCCN1C(=O)[C@@H](NC(=O)[C@H](CC(=O)O)NC(=O)[C@H](CC(C)C)NC(=O)[C@H](CO)NC(=O)[C@H](CC(C)C)NC(=O)[C@@H](NC(=O)[C@@H](N)[C@@H](C)CC)C(C)C)C(C)C)[C@@H](C)CC)C(=O)N[C@@H](CCC(N)=O)C(=O)N[C@@H](CCCCN)C(=O)N[C@@H](CC(C)C)C(=O)N[C@@H](CC(C)C)C(=O)N[C@@H](CCCCN)C(=O)N[C@@H](CCC(N)=O)C(=O)N[C@@H](CCC(N)=O)C(=O)N[C@@H](CCCNC(=N)N)C(=O)N[C@@H](CCC(N)=O)C(=O)N[C@@H](CCCNC(=N)N)C(=O)N[C@@H](CCCCN)C(=O)N[C@@H](CCC(=O)O)C(=O)N[C@@H](CCCNC(=N)N)C(=O)N[C@@H](CCC(N)=O)C(=O)N[C@@H](CCC(N)=O)C(=O)N[C@@H](C)C(=O)N[C@@H](CCC(=O)O)C(=O)N[C@@H](CCCCN)C(=O)N[C@@H](CC(N)=O)C(=O)N[C@@H](C)C(=O)N[C@@H](CCCNC(=N)N)C(=O)N[C@H](C(=O)N[C@@H](CC(C)C)C(=O)N[C@@H](C)C(=O)N[C@@H](CCCNC(=N)N)C(=O)N[C@H](C(N)=O)C(C)C)[C@@H](C)CC)C(=O)O [compound 6] (H-IVLSLDVPIGLK([γGlu-Palmitoyl])QKLLKQQRQRKERQQAEKNARILARV-NH2; N-terminus assumed) | 0.16 | 0.18 | 47.2 | No | >45 | No | >45 | > 8500 | > 8100 | 1.9 | – | – | – | – |
| CC[C@H](C)[C@H](N)C(=O)N[C@H](C(=O)N[C@@H](CC(C)C)C(=O)N[C@@H](CO)C(=O)N[C@@H](CC(C)C)C(=O)N[C@@H](CC(=O)O)C(=O)N[C@H](C(=O)N1CCC[C@H]1C(=O)N[C@H](C(=O)N[C@@H](CCCCN)C(=O)N[C@@H](CC(C)C)C(=O)N[C@@H](CCCCNC(=O)COCCOCCNC(=O)COCCOCCNC(=O)CC[C@H](NC(=O)CCCCCCCCCCCCCCCCC(=O)O)C(=O)O)C(=O)N[C@@H](CCC(N)=O)C(=O)N[C@H](C(=O)N[C@@H](CC(C)C)C(=O)N[C@@H](CC(C)C)C(=O)N[C@@H](CCCCN)C(=O)N[C@@H](CCC(N)=O)C(=O)N[C@@H](CCC(=O)O)C(=O)N[C@@H](CCCNC(=N)N)C(=O)N[C@@H](CCC(N)=O)C(=O)N[C@@H](CCCCN)C(=O)N[C@@H](CCCCN)C(=O)N[C@@H](CCC(N)=O)C(=O)N[C@@H](CCCNC(=N)N)C(=O)N[C@@H](CCC(N)=O)C(=O)N[C@@H](CCCCN)C(=O)N[C@@H](C)C(=O)N[C@@H](CCC(=O)O)C(=O)N[C@H](C(=O)N[C@@H](CC(N)=O)C(=O)N[C@@H](CCCCN)C(=O)N[C@@H](CCC(N)=O)C(=O)N[C@H](C(=O)N[C@@H](CC(C)C)C(=O)N[C@@H](C)C(=O)N[C@@H](CCC(N)=O)C(=O)N[C@H](C(N)=O)C(C)C)[C@@H](C)CC)[C@@H](C)O)[C@@H](C)CC)[C@@H](C)CC)C(C)C)C(C)C [compound 77] (H-IVLSLDVPIKLK([AEEA-AEEA-γGlu-C18 diacid])QILLKQERQKKQRQKAETNKQILAQV-NH2) | 0.33 | – | – | – | – | Yes | 23.0 to 29.7 | – | – | 3.60 | 1.56 | 3.26 | > 8000 | > 9000 |
